Data reported in patent publication US11786528B2, “Pyrazolopyrimidine compounds as adenosine receptor antagonists” (EXSCIENTIA LTD., priority 2018, dated 2023).
≈ marks a conversion by molar mass, not a printed value.

Assays:
[1] = molecular target: human adenosine receptor sub-type A3 (Homo sapiens (Human), UniProt P0DMS8); assay: Affinity for human adenosine A3 receptor by SPR; type: binding; conditions: for Relative selectivity for A2a v. A3: from SPR IC50 values, rounded to 2 significant figures
Chain of human adenosine receptor sub-type A3 (P0DMS8 whole entry): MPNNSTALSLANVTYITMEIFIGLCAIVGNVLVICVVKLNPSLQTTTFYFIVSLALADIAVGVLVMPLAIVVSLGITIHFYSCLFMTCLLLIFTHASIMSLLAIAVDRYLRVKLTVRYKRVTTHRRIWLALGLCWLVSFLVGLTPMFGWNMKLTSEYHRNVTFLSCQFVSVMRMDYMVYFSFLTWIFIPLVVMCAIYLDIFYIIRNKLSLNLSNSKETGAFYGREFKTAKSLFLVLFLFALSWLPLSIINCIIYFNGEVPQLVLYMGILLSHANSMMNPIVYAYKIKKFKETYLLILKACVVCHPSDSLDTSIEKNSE
Description: (§1) Affinity for the human adenosine receptor sub-types (A2a, A2b, A1 and A3) was determined by surface plasmon resonance (SPR) using published methodologies (see below for further details).
(§2) Affinity for the human adenosine receptor sub-types (A2a, A2b, A1 and A3) was determined by SPR as described in Aristotelous, T., et al, Methods in Enzymology (2015), Volume 556, Chapter 23, pages 499-525 and Congreve, M., et al, J Med Chem (2012), Vol. 55, pages 1898-1903. The method used was analogous to the method used in Congreve, M., et al (see supplementary page S10) for the A2a receptor, but the wild type receptor was used rather than the proprietary StaR form.

[2] = tested on: MCA-205 tumor; assay: Inhibition of the growth of MCA-205 tumor in syngeneic mice; type: in vivo, mouse; conditions: 30 mg/kg BID oral gavage, 11 consecutive days from day 10; day 19 to study termination; p<0.005 and p<0.001
Description: C57/BI6JRjJL female mice (9-10 weeks old from Janvier Laboratories) were engrafted in subcutaneous location with 0.25.10^6 MCA-205 cells (suspended in 100% PBS buffer, fibrosarcoma cell line kindly provided by Dr. J. Stagg, Universite de Montréal, Canada). Mice were then kept in a post-operative cabinet at 28° C. until complete recovery.
Randomization of mice was performed on day 9 post-cell inoculation, after measurement of tumour volumes using a digital caliper. Assuming an ovoid form of the tumour, the following formula was applied: Volume=0.52×(width)^2×length. Width and length were expressed in mm, volume in mm^3. Twenty-six female mice were allocated in two groups: vehicle and Example 1 (n=13 mice/group). Oral gavage with vehicle (control group, PEG200/Soluplus 10% in Citrate Buffer pH3 at 50 mM (50%/50% w/v)) or Example 1 solubilized in the vehicle at 30 mg/kg in BID (twice daily administrations by oral gavage with a volume of administration of 5 ml/kg) was initiated 10 days after cell inoculation and continued for 11 consecutive days.

[3] = tested on: human primary CD3+ T-cells; assay: Recovery of 2-chloroadenosine (CADO) mediated inhibition of IL-2 production; type: cell-based; conditions: T-cell, two donors, 10 μM CADO, 48 hours
Description: CD3^+ cells were isolated from Buffy Coat of two human healthy donors (Donor 1: D1 and Donor 2: D2) with the RosetteSep technology (RosetteSep Human T cell enrichment cocktail from Stem Cell) according to provider's instructions. T-cells were then stimulated with anti-CD3 mAb, anti-CD28 mAb coated beads (Dynabeads® Human T-Activator CD3/CD28 (Thermo Fisher Scientific) in a complete medium containing 10% fetal bovine serum in the presence or not of Example 1. After one hour incubation time, CADO (2-chloroadenosine, Abcam Biochemical) at 10 μM was added to the culture. After 48 hours of stimulation at 37° C., 5% CO2 and a short centrifugation, culture supernatant were harvested and stored at −80° C. for further evaluation by ELISA. In the meantime, a staining with a living dye was performed to access compound-induced toxicity. Il-2 measurement was performed by using the Human IL-2 Uncoated ELISA (Invitrogen) following data sheet instructions. To access the percentage of IL-2 inhibition induced by 10 μM CADO, the calculation used control condition (cells stimulated in basal condition). Then to access compound-induced recovery of IL-2 production, each dose was normalized following this formula: ([sample]−[mean of CADO])/([mean of basal condition]−[mean of CADO])*100. Compounds normalization was performed per plate. […]

[4] = molecular target: human adenosine receptor sub-type A2b (Homo sapiens (Human), UniProt P29275); assay: Affinity for human adenosine A2b receptor by SPR; type: binding; conditions: for IC50: SPR, human A2b receptor; for Relative selectivity for A2a v. A2b: from SPR IC50 values, rounded to 2 significant figures
Chain of human adenosine receptor sub-type A2b (P29275 whole entry): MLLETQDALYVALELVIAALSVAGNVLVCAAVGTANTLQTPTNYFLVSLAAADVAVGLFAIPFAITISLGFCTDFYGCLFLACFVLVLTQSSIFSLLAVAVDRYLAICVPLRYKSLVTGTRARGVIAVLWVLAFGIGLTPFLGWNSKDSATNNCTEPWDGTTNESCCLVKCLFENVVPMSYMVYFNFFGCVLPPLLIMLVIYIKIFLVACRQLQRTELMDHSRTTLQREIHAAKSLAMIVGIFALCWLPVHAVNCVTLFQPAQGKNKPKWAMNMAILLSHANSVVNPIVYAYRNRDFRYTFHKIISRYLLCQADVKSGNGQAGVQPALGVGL
Description: as §1, §2

[5] = molecular target: human adenosine receptor sub-type A1 (Homo sapiens (Human), UniProt P30542); assay: Affinity for human adenosine A1 receptor by SPR; type: binding; conditions: for IC50: SPR, human A1 receptor; for Relative selectivity for A2a v. A1: from SPR IC50 values, rounded to 2 significant figures
Chain of human adenosine receptor sub-type A1 (P30542 whole entry): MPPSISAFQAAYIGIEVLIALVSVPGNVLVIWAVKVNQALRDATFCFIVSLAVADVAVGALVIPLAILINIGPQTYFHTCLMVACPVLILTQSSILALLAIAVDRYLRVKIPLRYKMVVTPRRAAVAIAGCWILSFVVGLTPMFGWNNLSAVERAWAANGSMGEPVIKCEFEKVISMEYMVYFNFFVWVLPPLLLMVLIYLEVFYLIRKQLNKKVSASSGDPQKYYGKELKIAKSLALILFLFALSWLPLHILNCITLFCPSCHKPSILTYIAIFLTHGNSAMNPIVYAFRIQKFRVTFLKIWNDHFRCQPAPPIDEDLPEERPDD
Description: as §1, §2

[6] = molecular target: human A2a receptors (HEK 293 transfected) (Homo sapiens (Human), UniProt P29274); assay: Inhibition of cAMP release in HEK-A2aR cells (HTRF, LANCE Ultra cAMP); type: cell-based; conditions: 3 nM NECA, 10 min
Chain of human A2a receptors (HEK 293 transfected) (P29274 whole entry): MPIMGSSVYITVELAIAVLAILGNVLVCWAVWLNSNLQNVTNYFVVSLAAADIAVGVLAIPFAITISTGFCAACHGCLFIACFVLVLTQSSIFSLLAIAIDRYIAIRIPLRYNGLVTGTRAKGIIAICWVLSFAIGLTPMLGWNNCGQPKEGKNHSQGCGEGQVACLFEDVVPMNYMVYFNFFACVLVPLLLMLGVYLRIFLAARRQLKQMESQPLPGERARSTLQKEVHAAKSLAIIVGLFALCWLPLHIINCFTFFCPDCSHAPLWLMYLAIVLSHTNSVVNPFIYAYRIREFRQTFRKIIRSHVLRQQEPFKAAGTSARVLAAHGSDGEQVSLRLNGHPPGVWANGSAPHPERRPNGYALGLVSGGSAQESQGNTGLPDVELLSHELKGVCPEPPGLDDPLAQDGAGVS
Description: Functional activity was measured by inhibition of cAMP release in HEK cells (see below for further details).
To screen A2a receptor inhibitors by HTRF technology, about 500 HEK-A2aR cells (HEK 293 transfected with human A2a receptors) were treated with inhibitors in presence of stimulation buffer (1×HBSS, 5 mM HEPES, 0.1% BSA stabilizer, pH 7.4) supplemented with 30 μM phosphodiesterase inhibitor Rolipram (to prevent cAMP degradation). This stimulation was immediately followed by treatment with 3 nM standard A2aR agonist (NECA) for 10 min under gentle shaking at room temperature. After that, inhibition of cAMP release was determined directly using LANCE Ultra cAMP assay (Perkin Elmer TRF0263).
All analysis was performed using GraphPad Prism 7.0 (GraphPad Software, San Diego, USA). Results are given, as EC50 (M).

[7] = molecular target: human adenosine receptor sub-type A2a (wild type) (Homo sapiens (Human), UniProt P29274); assay: Affinity for human adenosine A2a receptor by surface plasmon resonance (SPR); type: binding
Chain of human adenosine receptor sub-type A2a (wild type) (P29274 whole entry): as above
Description: as §1, §2

[8] = Solubility; type: physicochemical; conditions: water (or specific buffer), thermodynamic from solid, overnight stirring at ambient temperature, LC-UV
Description: The test compound in solid form was suspended in water (or specific buffer). After overnight stirring at ambient temperature protected from light, suspensions were filtered. An aliquot of the resulting supernatant was quantified using LC-UV method against a reference solution in DMSO obtained by preparation from powder.

IC50 ([1]; SPR, human A3 receptor) [nM] | Relative selectivity for A2a v. A3 [1] | EC50 [3] [nM] | IC50 [4] [nM] | Relative selectivity for A2a v. A2b [4] | IC50 [5] [nM] | Relative selectivity for A2a v. A1 [5] | EC50 [6] [nM] | IC50 [7] [nM] | solubility [8] [µg/mL] | A3 SPR IC50 ([1]; SPR, human A3 receptor) | Structure (SMILES) | mean tumor volume [2]
35800 | 10000 | 560 | 1500 | 430 | 3100 | 890 | 4 | 3.5 | – | – | Cc1cccc(Cn2cc3c(N)nc(-c4ccsn4)nc3n2)c1 [Example 1, 2-[(3-methylphenyl)methyl]-6-(1,2-thiazol-3-yl)-2H-pyrazolo[3,4-d]pyrimidin-4-amine] | significant inhibition of the mean tumor volume
– | – | – | – | – | – | – | 82 | 2.7 | > 10 | – | COc1ccccc1Cn1cc2c(N)nc(-c3cnccn3)nc2n1 [Example 37, 2-[(2-methoxyphenyl)methyl]-6-(pyrazin-2-yl)-2H-pyrazolo[3,4-d]pyrimidin-4-amine] | –
44300 | 10000 | – | 11700 | 2700 | 3400 | 790 | 13 | 4.3 | – | – | COc1ccccc1Cn1cc2c(N)nc(-c3ccsn3)nc2n1 [Example 38, 2-[(2-methoxyphenyl)methyl]-6-(1,2-thiazol-3-yl)-2H-pyrazolo[3,4-d]pyrimidin-4-amine] | –
– | – | – | – | – | – | – | 23 | 11 | > 10 | – | COc1cccc(Cn2cc3c(N)nc(-c4nccs4)nc3n2)c1 [Example 8, 2-[(3-methoxyphenyl)methyl]-6-(1,3-thiazol-2-yl)-2H-pyrazolo[3,4-d]pyrimidin-4-amine] | –
21000 | 4300 | – | 580 | 120 | 350 | 71 | 70 | 4.9 | > 10 | – | COc1cccc(Cn2cc3c(N)nc(-c4cnco4)nc3n2)c1 [Example 11, 2-[(3-methoxyphenyl)methyl]-6-(1,3-oxazol-5-yl)-2H-pyrazolo[3,4-d]pyrimidin-4-amine] | –
4700 | 1100 | – | 530 | 130 | 290 | 69 | 60 | 4.2 | > 10 | – | Nc1nc(-c2ccsn2)nc2nn(Cc3cccc(Cl)c3)cc12 [Example 35, 2-[(3-chlorophenyl)methyl]-6-(1,2-thiazol-3-yl)-2H-pyrazolo[3,4-d]pyrimidin-4-amine] | –
1970 | 900 | – | 4910 | 2200 | 114 | 51 | 18 | 2.2 | 1 (≈ 2.98 µM) | – | COc1ccccc1Cn1cc2c(N)nc(-c3ccc(C)o3)nc2n1 [Comparative Example 1, reference compound] | –
– | – | – | – | – | – | – | – | 589 | > 50 | – | COc1ccc(Cn2cc3c(N)nc(-c4cnccn4)nc3n2)cc1OC [Example 41, 2-[(3,4-dimethoxyphenyl)methyl]-6-(pyrazin-2-yl)-2H-pyrazolo[3,4-d]pyrimidin-4-amine] | –
– | – | – | – | – | – | – | 7 | 3.2 | > 50 | – | Cc1cccc(Cn2cc3c(N)nc(-c4cnccn4)nc3n2)c1 [Example 27, 2-[(3-methylphenyl)methyl]-6-(pyrazin-2-yl)-2H-pyrazolo[3,4-d]pyrimidin-4-amine] | –
– | >10000 | – | 1450 | 260 | 1180 | 210 | 84 | 5.6 | > 5 | Non- | Cc1ccc(Cn2cc3c(N)nc(-c4ccsn4)nc3n2)cc1F [Example 19, 2-[(3-fluoro-4-methylphenyl)methyl]-6-(1,2-thiazol-3-yl)-2H-pyrazolo[3,4-d]pyrimidin-4-amine] | –
38800 | 4900 | – | 9000 | 1100 | 7300 | 920 | 199 | 7.9 | – | – | Cc1ccc(Cn2cc3c(N)nc(-c4cnccn4)nc3n2)cc1 [Example 12, 2-[(4-methylphenyl)methyl]-6-(pyrazin-2-yl)-2H-pyrazolo[3,4-d]pyrimidin-4-amine] | –
– | – | – | – | – | – | – | 127 | 15 | > 50 | – | Nc1nc(-c2ccsn2)nc2nn(Cc3ccccc3O)cc12 [Example 44, 2-{[4-amino-6-(1,2-thiazol-3-yl)-2H-pyrazolo[3,4-d]pyrimidin-2-yl]methyl}phenol] | –
46200 | 23000 | – | 1460 | 730 | 990 | 500 | 13 | 2 | – | – | COc1ccccc1Cn1cc2c(N)nc(-c3cnco3)nc2n1 [Example 40, 2-[(2-methoxyphenyl)methyl]-6-(1,3-oxazol-5-yl)-2H-pyrazolo[3,4-d]pyrimidin-4-amine] | –
